# Results reported in patent US20090054450A1, “COMPOSITIONS AND METHODS OF USE FOR TREATING OR PREVENTING LIPID RELATED DISORDERS” (IRONWOOD PHARMACEUTICALS, INC., priority 2007, published 2009).
# How the values were obtained:
# [1] = system: rat high fat, high cholesterol diet model; assay: Rat High Fat, High Cholesterol Diet Model; format: in vivo; conditions: HFHC diet rats; for HDL / LDL / VLDL: once daily perorally for seven days, serum VAP analysis, compound 13 at 3, 10, 30 mg/kg; for HDL / LDL / VLDL / blood glucose: compound 10A at 3, 10, or 30 mg/kg, compound 5A at 100 mg/kg; for blood glucose: seven days dosing
# Description: Fibrate and statin derivatives, alone and in combination, are tested for effects on cholesterol and lipid profiles in a rat high fat diet model for example as described in Ghibaudi et al. (2002) Obes Res 10:956-63, Ricci and Levin (2003) Am J Physiol Regul Integr Comp Physiol 285:R610-8, and Gao et al. (2002) 936:87-90. Alternatively, animals are fed either a normal diet or a chow supplemented with added fat and/or cholesterol as described in Krause et al (1994) Pharm Res Vol 29, No. 4, Nishina (1993) J of Lipid Res vol 43. and Gajda et al. (2007) Animal Lab News. Based on the specific chows used in these reports, we fed animals a diet consisting of 40% fat, 1% cholesterol, and 0.5% cholic acid (catalog #D01061201, Research Diets, New Brunswick, N.J. 08901). After at least a week on this diet, animals (6-8/group) are dosed once daily perorally with 300 uL test compounds in PEG 400 or suitable vehicle. Groups are dosed for at least one week before whole blood samples are taken for analysis. Blood serum is analyzed using Vertical Auto Profile (VAP; Atherotech, Inc., Birmingham, Ala.) analysis similar to as described in Kulkami (2006) Clin Lab Med 26:787-802.
# Similarly, when tested in this assay, Compound 5A [(E)-4-(3,5-dimethoxystyryl)phenyl 2-(4-(4-chlorobenzoyl)phenoxy)-2-methylpropanoate] was associated with decreased LDL and VLDL, no change in blood glucose, and increased HDL. Graphical depictions showing the LDL, VLDL and HDL analyses for compounds 10A and 5A are shown in FIGS. 1, 2, and 3 respectively. Compound 13 (4-(nitrooxy)butyl 2-(4-(4-chlorobenzoyl)phenoxy)-2-methylpropanoate) was also tested in this assay. FIGS. 4-6 are graphs showing that Compound 13 decreased LDL (FIG. 4) and VLDL (FIG. 5) and increased HDL (FIG. 6). Fenofibrate was also tested in this assay at 2, 6.8 and 20.5 mg/kg (FIGS. 4-6) which are equimolar equivalents (for the fenofibric acid moiety) of Compound 10A dosed at […]. Similar untested dose equivalent amounts to Compound 13 at 3, 10, and 30 mg/kg would be 2.5, 8.3, and 24.8 mg/kg of fenofibrate. In these experiments animals (n=6 per group) were fed either a normal chow (chow) or high fat high cholesterol chow (HFHC; 40% fat, 1% cholesterol, 0.5% cholic acid) diet for one week before test compound administration. Animals received either no test compound (“naïve”), vehicle only (PEG 400) or test compound (compound 10A at 3, 10, or 30 mg/kg, compound 5A at 100 mg/kg, compound 13 at 3, 10, 30 mg/kg, or fenofibrate at 2, 6.8, or 20.5 mg/kg) for seven days before whole blood samples were taken for analysis. […] Compound 8A may be useful for another contemplated use described herein however.
# ob/ob mice [2] = assay: Obese (ob/ob) Mouse Model, blood glucose; format: in vivo; conditions: ob/ob mice on high fat chow, perorally once daily for three weeks, days 7, 14, 21; Compound 10A 30 and 100 mg/kg, Compound 121 43 or 1000 mg/kg, fenofibrate 68 mg/kg
# Description: The increased expression of plasma lipids in ob/ob mice make them a useful model for the study of drugs designed to lower cholesterol. In these experiments animals (n=10 per group) were fed a high fat chow (HF; 60% fat,) for one week before test compound administration and continued on this diet for the duration of the experiment. Animals received either vehicle only (PEG 400), or test compound (Compound 121 (resveratrol) at 43 or 1000 mg/kg, Compound 10A at 30 or 100 mg/kg, or fenofibrate at 68 mg/kg) perorally once daily for a total of three weeks. Blood samples were collected weekly for the determination of fasting glucose levels (One touch Ultra, LifeScan Inc). Blood serum was analyzed after three weeks using Vertical Auto Profile (VAP; Atherotech, Inc., Birmingham, Ala.) analysis similar to as described in Kulkami (2006) Clin Lab Med 26:787-802. […] 43 mg/kg of compound 121 (resveratrol) and 68 mg/kg of fenofibrate are the equimolar equivalents to the amounts of resveratrol and fenofibric acid moieties in 100 mg/kg of Compound 10A. […] FIG. 8 is a pharmacokinetic profile (using the methodologies as described herein) analyzing fenofibric acid levels in blood plasma of ob/ob mice dosed with either 68 mg/kg of fenofibrate, or 30 mg/kg or 100 mg/kg of Compound 10A.
# [3] = Pharmacokinetic profile in blood plasma of ob/ob mice (LC/MS-MS); format: in vivo, mouse
# Description: The increased expression of plasma lipids in ob/ob mice make them a useful model for the study of drugs designed to lower cholesterol. In these experiments animals (n=10 per group) were fed a high fat chow (HF; 60% fat,) for one week before test compound administration and continued on this diet for the duration of the experiment. Animals received either vehicle only (PEG 400), or test compound (Compound 121 (resveratrol) at 43 or 1000 mg/kg, Compound 10A at 30 or 100 mg/kg, or fenofibrate at 68 mg/kg) perorally once daily for a total of three weeks. Blood samples were collected weekly for the determination of fasting glucose levels (One touch Ultra, LifeScan Inc). Blood serum was analyzed after three weeks using Vertical Auto Profile (VAP; Atherotech, Inc., Birmingham, Ala.) analysis similar to as described in Kulkami (2006) Clin Lab Med 26:787-802. […]
# (§1) Various pharmacokinetic parameters were calculated by collecting plasma samples from animals dosed with a test compound and analyzed by LC/MS-MS. […] Concentrations were determined by relative responses to an internal standard and calculated based on a standard concentration curve of the test compound. […] Oral Bioavailability (Fn) was calculated using the equation: F=(AUCoral/AUCIV)*DoseIV.Doseoral). Cmax and Tmax are determined by visual inspection of the oral concentration curve. […]
# [4] = Pharmacokinetics in rat high fat high cholesterol diet model (LC/MS-MS); format: in vivo; conditions: oral administration, vs compound 121 (resveratrol)
# Description: Similarly, when tested in this assay, Compound 5A [(E)-4-(3,5-dimethoxystyryl)phenyl 2-(4-(4-chlorobenzoyl)phenoxy)-2-methylpropanoate] was associated with decreased LDL and VLDL, no change in blood glucose, and increased HDL. Graphical depictions showing the LDL, VLDL and HDL analyses for compounds 10A and 5A are shown in FIGS. 1, 2, and 3 respectively. Compound 13 (4-(nitrooxy)butyl 2-(4-(4-chlorobenzoyl)phenoxy)-2-methylpropanoate) was also tested in this assay. FIGS. 4-6 are graphs showing that Compound 13 decreased LDL (FIG. 4) and VLDL (FIG. 5) and increased HDL (FIG. 6). Fenofibrate was also tested in this assay at 2, 6.8 and 20.5 mg/kg (FIGS. 4-6) which are equimolar equivalents (for the fenofibric acid moiety) of Compound 10A dosed at […]. Similar untested dose equivalent amounts to Compound 13 at 3, 10, and 30 mg/kg would be 2.5, 8.3, and 24.8 mg/kg of fenofibrate. […]
# as §1
# ob/ob mice [5] = conditions: fenofibrate 100 mg/kg; McCarmona et al. (2005); cited from earlier work
Structure (SMILES),HDL [1],LDL [1],VLDL [1],blood glucose [1],"blood glucose (fasting), change compared to day 0 (ob/ob mice [2])",further results
"COc1cc(/C=C/c2ccc(OC(=O)C(C)(C)Oc3ccc(C(=O)c4ccc(Cl)cc4)cc3)cc2)cc(OC)c1 [Compound 5A, (E)-4-(3,5-dimethoxystyryl)phenyl 2-(4-(4-chlorobenzoyl)phenoxy)-2-methylpropanoate]",increased,decreased,decreased,no change,–,–
"CC(C)(Oc1ccc(C(=O)c2ccc(Cl)cc2)cc1)C(=O)Oc1ccc(/C=C/c2cc(O)cc(O)c2)cc1.Cl [Compound 10A, (E)-4-(3,5-dihydroxystyryl)phenyl 2-(4-(4-chlorobenzoyl)phenoxy)-2-methylpropanoate]",increased,dose related decreases,dose related decreases,decreased,statistically significant (when compared to day 0) decreases,"fenofibric acid exposure in blood plasma ([3]; ob/ob mice, 30 mg/kg Compound 10A as compared to 68 mg/kg fenofibrate): less fenofibric acid exposure; resveratrol pharmacokinetic profile ([3]; obese mouse model, oral administration, 100 mg/kg Compound 10A vs 43 mg/kg compound 121 (resveratrol)): different resveratrol pharmacokinetic profile; resveratrol pharmacokinetic profile [4]: different resveratrol pharmacokinetic profile"
"Oc1ccc(/C=C/c2cc(O)cc(O)c2)cc1 [Compound 121, (E)-5-(4-hydroxystyryl)benzene-1,3-diol]",–,–,–,–,neither Compound 121 (resveratrol; dosed at 43 or 1000 mg/kg) or fenofibrate (dosed at 68 mg/kg) resulted in statistically significant changes,–
"CC(C)OC(=O)C(C)(C)Oc1ccc(C(=O)c2ccc(Cl)cc2)cc1 [fenofibrate, 2-[4-(4-chlorobenzoyl)phenoxy]-2-methyl-propanoic acid, 1-methylethyl ester]",–,–,–,–,neither Compound 121 (resveratrol; dosed at 43 or 1000 mg/kg) or fenofibrate (dosed at 68 mg/kg) resulted in statistically significant changes,blood glucose in ob/ob mice (ob/ob mice [5]): shown to decrease blood glucose
"CC(=O)Oc1cc(/C=C/c2ccc(OC(=O)C(C)(C)Oc3ccc(C(=O)c4ccc(Cl)cc4)cc3)cc2)cc(OC(C)=O)c1 [Compound 8A, (E)-5-(4-(2-(4-(4-chlorobenzoyl)phenoxy)-2-methylpropanoyloxy)styryl)-1,3-phenylene diacetate]",–,–,–,–,–,"efficacy in rat high fat, high cholesterol diet model [1]: does not show any efficacy; melting point: 112 to 113 °C"
"CC(C)(Oc1ccc(C(=O)c2ccc(Cl)cc2)cc1)C(=O)OCCCCO[N+](=O)[O-] [Compound 13, 4-(nitrooxy)butyl 2-(4-(4-chlorobenzoyl)phenoxy)-2-methylpropanoate]",increased,decreased,decreased,–,–,–
